Each structure is given as a SMILES string.

How the values of series [1] were obtained:
FIG. 2 is a graph showing changes in oxygen consumption (VO2) following iv infusion of sodium nitrite in increasing doses. Nitrite was infused over a 10 min period in non-smoking healthy male volunteers (30-70 years).
The present inventors have been studying the effects of nitrate and nitrite on various physiological functions including blood pressure, glucose metabolism and energy expenditure in vivo. In the examples below, unless otherwise noted, nitrate was administered perorally and nitrite was administered intravenously (iv). Oxygen consumption was measured using indirect calorimetry.
(§1) Prior to the test the subjects had been on a diet low in nitrate for one day and had been fasting for at least 8 h.

The next series is described as follows: clinical. The method, then:
as §1

Series [2] is described as follows: Oral Glucose Tolerance Test after three-day sodium nitrate supplementation (n=8). Conditions: 75 g glucose, 0.1 mmol/kg body weight/day for three days. The class given is in vivo, human. Here is the method:
FIG. 8 is a graph showing changes in blood glucose levels after an oral challenge with glucose in 8 additional subjects in a double-blind, placebo-controlled cross-over study. A standard oral glucose tolerance test was performed. The subjects (healthy non-smoking volunteers) had their diet supplemented for 3 days with either sodium chloride (PLACEBO) or sodium nitrate (NITRATE) at a dose of 0.1 mmol/kg/day. Data are presented as mean±SEM.
The lower increase in plasma glucose after nitrate pre-treatment was verified in a further study wherein a standard Oral Glucos Tolerance Test (75 g glucose) was performed in 8 healthy non-smoking subjects after a three-day supplementation with either sodium chloride or sodium nitrate at equal molar amounts (0.1 mmol/kg body weight/day). […] Blood glucose levels were measured at two time points before (−10 and 0 min) and at 15, 30, 45, 60, 75, 90, 105 and 120 min after glucose intake (n=8). At the occasion when the subjects had taken nitrate, the area under the curve for blood glucose was smaller compared to when they had ingested placebo.

Series [3] in a line: Oral Glucose Tolerance Test after nitrate pre-treatment (n=3). The class given is in vivo, human. The note with it: 75 g glucose, 60 min after nitrate 1 mmol/kg body weight NaNO3, n=3; placebo 8.2. The method, then:
FIGS. 7a-7c consist of three graphs, showing changes in blood glucose levels after an oral challenge with glucose for three test subjects in a double-blind, placebo-controlled cross-over study (FIGS. 7a, 7b and 7c). A standard oral glucose tolerance test was performed. The subjects (healthy non-smoking volunteers) had their diet supplemented for 3 days with either sodium chloride (placebo) or sodium nitrate (Nitrate) at a dose of 0.1 mmol/kg body weight/day.
The increase in plasma glucose after a standard Oral Glucose Tolerance Test (75 g glucose in 250 ml water) is lower when measured after nitrate pre-treatment (1 mmol/kg body weight NaNO3) compared to placebo (NaCl). The study was performed with three healthy test subjects in a double-blind study. Glucose ingestion started 60 min after the nitrate ingestion. Blood glucose levels were measured during the 120 min period after the glucose load (n=3). At 30 min mean plasma glucose was 8.2 mmol/l with placebo and in the same subjects 6.5 mmol/l after nitrate supplementation.

The source holds these as a separate data set.
Series [4] is classed as in vivo, human.
Series [5] can be described thus: Blood pressure at rest after dietary sodium nitrate supplementation. The class given is in vivo, human. Conditions: 0.1 mmol/kg body weight/day oral, 3 days, mean±SD, n=9. Here is the method: Subjects: Nine healthy, well trained (VO2peak 55±3.7 ml×kg-1×min-1), males (28±6 years) volunteered for the study. All subjects were trained cyclists or triathletes and well accustomed to the testing procedure. It was chosen to use well-trained subjects to avoid training effects from the tests such as enhanced VO2peak or better mechanical efficiency during submaximal exercise. The protocol was approved by the regional ethics committee in Stockholm and all subjects gave their written consent prior to participation.
Dietary supplementation with nitrate: The aim with the present study was to investigate the effects of two distinct dietary patterns, one with higher, and one with lower than normal nitrate intake. […] During two three-day periods, separated by a washout interval of ten days, the subjects were instructed to avoid all foods with moderate or high nitrate content (all vegetables, all cured meats, strawberries, grapes, and tea). In addition, they were told to restrain from alcohol and tobacco products. Otherwise they were free to eat any food they liked during the three days of restricted diet. The subjects were randomized to start with either ingestion of 0.1 mmol sodium nitrate/kg body weight/day dissolved in water or an equal amount of sodium chloride (placebo). The daily dose was divided and ingested three times daily. The different solutions could not be distinguished by taste or appearance. The daily nitrate dose corresponded to the amount normally found in 150-250 gram of a nitrate-rich vegetable such as spinach, lettuce or beetroot. The last dose of nitrate or placebo was ingested in the morning on the day of measurement (see the main tests below). The order between the nitrate supplementation period (NIT) and the placebo period (CON) was balanced.
The main tests: The subjects refrained from heavy exercise three days prior to the main tests and avoided all exercise the day before the tests. They were also told to eat their last light meal at least 3 hours before the start of the tests. […]

Test in series [6]: not given
The source holds these as a separate data set.

Series [7] can be described thus: Plasma nitrite after intraperitoneal nitrate in wild type, germ free and eNOS knockout mice. The class given is in vivo. Conditions: 10 mg/kg ip, 1 hour later. The method, then: Three different strains of mice—wild type (n=5 placebo, n=5 nitrate), germ free (n=5 placebo, n=5 nitrate) and eNOS knockout mice (n=2 placebo, n=3 nitrate), were given an intra peritoneal injection of 10 mg/kg body weight nitrate or placebo (NaCl) and plasma level of nitrite measured 1 hour later.

Series [8] is described as follows: Post-ischemic abdominal aortic blood flow after nitrate infusion. The class given is in vivo. Conditions: rats, 10 mg/kg iv bolus + 3 mg/kg/h. Here is the method: Rats received an intravenous bolus dose of 10 mg/kg nitrate (NaNO3, n=4) or placebo (NaCl, n=4)) diluted in PBS (pH 7.4) followed by continuous infusion of 3 mg/kg body weight/h. An hour after the addition of nitrate (open boxes) or placebo (filled circles), L-NAME (50 mg/kg) was given, and 10 minutes later, a supra renal clamping of the abdominal aorta was performed. After 30 minutes of ischemia the clamp was removed and the abdominal aortic blood flow was monitored during 60 minutes.

The mark [9] stands for this setting: anesthetized rats, 10 mg/kg bolus NaNO3.

Consider `O=NO` [sodium nitrite], for which, in series [1] (after 10 min of iv infusion, n=4, major drop at 10 nmoles/kg body weight/min), the “Reduction of resting energy expenditure” value is reported as 10-25%. Besides, the “Effect on energy expenditure / oxygen consumption” value in series [1] (iv 1 nmol/kg body weight/min, 10 min observation period) was “no obvious effects”. Further, the “Oxygen consumption compared to the 10 nmol dose” value in series [1] (iv 100 nmol/kg body weight/min) is “no further decrease in oxygen consumption”. Moreover, the “Methemoglobin after infusion of nitrite” value in the series “clinical” (basal 1.1-1.3 mmol/l, did not change significantly) lay within 1.1 to 1.4 mmol/L. The molecule also displayed a concentration at 10 min in “clinical” (human, plasma, iv, 10 nmol/kg body weight/min) of 370 to 480 nM.

With `O=[N+]([O-])[O-].[Na+]` [sodium nitrate], the “Area under the curve for blood glucose, vs placebo” value in series [2] is on record as “smaller”. Besides, the “Mean plasma glucose at 30 min” value in [3] amounted to 6.5 mmol/L. Moreover, under setting [9], the “Concentration of plasma nitrate after infusion” value is listed as “increases dramatically” and the “Plasma nitrite concentrations after infusion” value is reported as “increased”. For the setting “rats, p<0.05”, the “Increase in plasma nitrite, nitrate only vs nitrate+allopurinol” value is on record as “significantly greater”. Besides, the “Average lowering of VO2 vs CON over the 4 submaximal work rates” value in series [4] (45-80% VO2peak) was determined as 0.15 L/min. In addition, the “VE, VE/VO2 or respiratory exchange ratio (RER), NIT vs CON” value in series [4] (any of the submaximal work rates) is given as “No significant differences”. The “Rating of perceived exertion (Borg RPE-scale), NIT vs CON” value in series [4] (any work load (submax or max)) is on record as “no difference”. The “Gross efficiency (GE)” value in series [4] (average, p=0.02 vs CON) is reported as 21.1%. Further, in series [4] (four lowest work rates, linear regression, p=0.04 vs CON), the “Delta efficiency (DE)” value stood at 22.9±1.9%. In addition, the “[Hla] (plasma lactate), NIT vs CON” value in series [4] (in vivo) was “No significant differences”. Further, in [4] (maximal work, no significant difference, p=0.29), the VO2peak was determined as 4.49 ± 0.44 L/min. Moreover, the Maximal work rate in [4] (maximal work, p=0.35) came to 360.6±32.8 watt. Also, the VEmax in series [4] (maximal work, p=0.5) was found to be 182 ± 21.4 L/min. This molecule yielded an HRmax in [4] (maximal work, p=0.94) of 189.8±7.0 beats×min-1. In [4] (submaximal work), the “Heart rate (HR), NIT vs CON” value was “no difference” and the “VO2 during the four work rates corresponding to 45-80% VO2peak, vs placebo period” value is reported as “significantly lower”. The “VO2 at 80% of VO2peak” value in [4] (submaximal work, 0.1 mmol/kg/day oral, 3 days, p=0.003 vs CON) was 3.44 ± 0.31 L/min. The Oxygen pulse in [4] (submaximal work, p=0.08 vs CON) worked out at 20.3±1.9 ml×beat-1. Moreover, in [5], the “Average resting systolic blood pressure” value worked out at 112±8 mmHg and the “Resting diastolic blood pressure” value is on record as 68±5.5 mmHg. Moreover, the “Average resting systolic blood pressure” value in series [5] (listed as NIT) is 120+/−5.9 mmHg. The “Plasma nitrate levels immediately after the maximal work test” value in series [6] (0.1 mmol/kg/day oral, 3 days, after maximal work test) turned out to be 175 ± 61 µM. Further, in series [6] (0.1 mmol/kg/day oral, 3 days, at rest), the “Plasma levels of nitrate at rest” value worked out at 182000 ± 55000 nM. In series [6] (compared with placebo period), the “Decrease in nitrite concentrations during exercise, vs CON” value is “more pronounced”. In addition, in series [6] (in vivo, po), the “Plasma nitrite levels at rest” value was found to be 226 ± 87 nM and the “Plasma nitrite levels immediately after the maximal work test” value is 137 ± 48 nM. Also, in [6] (p=0.08), the “Increase in c-GMP concentrations after the maximal work as compared to rest, vs CON” value is “tended to be higher”. In addition, the “Change of plasma nitrate during exercise” value in series [6] (p=0.8) was “did not change”. The “Nitrate-induced increase in plasma nitrite across wild type, germ free and eNOS knockout mice” value in series [7] is “equal”. For the same molecule, in series [8], the “Post-ischemic blood flow in early (0-10 minutes) and late (10-60 minutes) phase, vs placebo” value is “higher blood flow”. Moreover, the “Abdominal aortic blood flow after 60 min of reperfusion” value in series [8] (L-NAME, 30 min ischemia, control rats 20% of pre-ischemic values) is reported as ~75 % of control values.

The record behind these values is US11759477B2, “Compositions of nitrates and methods of use thereof” (Heartbeet Ltd., priority 2007, dated 2023).
